Patent US8871900B2, “Fibroblast growth factor (FGF) analogs and uses thereof” (University of Rochester, priority 2008, dated 2014)
Peptide text beside a SMILES is read from it.

How the values were obtained:
[1] = test system: proliferating crypts of small intestine; assay: Crypt assay of small intestine after sub-TBI (H&E, BrdU, villi length); assay type: in vivo, mouse (Balb/c, C57BL/6)
Source text: Enhanced proliferation of crypts in small intestine: The epithelium of the small intestine has a rapid turnover, renewing every 3-7 days. The stem cells are located ⅓ of the way up the […] and active mitosis can be seen above growing into the villus and below, forming the crypt. There are no definitive markers available to identify the stem cells, and thus the number of these cells in each crypt are unknown. When the bowel is irradiated, the number of crypts remains constant up to a dose just below the LD50/7. Above that dose, there is a log-linear decrease in the number of crypts, usually measured at 3.5 days. […] Data from the crypt assay can be augmented with injection of BrdU. BrdU can be given to animals at one or more times after irradiation to determine the rate of proliferation and rate of elongation of villi.
FGF-P was then repeated daily for 2 days. At 80 hr post-IR, BrdU (120 mg/kg) was injected ip and 4 hours later (about 3.5 days post-IR), the mice were sacrificed and the duodenal, jejunal and ileal segments (3-4 pieces/segment) were harvested, fixed in formalin, processed in paraffin blocks, cut in transverse sections of the full segment circumference (5 μm thick) and stained with H&E or anti-BrdU following the standard immunochemistry procedure (23). The proliferating crypts were defined as containing 10 or more adjacent chromophilic non-Paneth cells and a lumen. The circumference of a transverse cross-section of the intestine was used as a unit. The number of proliferating crypts was counted in each circumference. At least 10 circumferences were scored per mouse and 4-5 mice were used to generate each data point.
The villi length of duodenum, jejunum and ileum was measured using a customized Imaging Pro program.

BM progenitors = BM progenitors (CD24, CD34) by flow cytometry after in vivo FGF-P; parameters: species or system mouse; conditions: in vivo administration following radiation
Source text: To determine if the stem cells are better regenerated, freshly harvested BM cells were stained with CD24, CD34 (two critical markers for BM multi-potential progenitors) and TER119 (a marker for reticulcoytes), and then analyzed with flow cytometry. […] This is consistent with the above in vitro data. After IR, there appears a very active generation of BM progenitors, a rebound phenomenon, similar to the intestine crypts that actively regenerate following IR to compensate for lost villi.

[2] = test system: GI Na transport from mucosa to serosa; assay: Electrolyte transport assay with 22Na flux (Ussing chamber); parameters: species or system mouse; conditions: after IR
Protocol: FGF-P improves GI function: The absorption of Na coupling with nutrition and blocking of pathogen invasion are the basic function of GI. […] To pin down the mechanism in cell/tissue level, the electrolyte transport assay with ^22Na flux was carried with Ussing chamber. […] Similarly, a “Dilution Potential” experiment was carried out and Goldman-Hodgkin-Katz (GHK) Voltage Equation used to determine relative paracellular permeability.

CC(C)C[C@H](NC(=O)[C@H](C)NC(=O)[C@@H](NC(=O)[C@H](Cc1ccc(O)cc1)NC(=O)[C@H](Cc1c[nH]c2ccccc12)NC(=O)[C@H](CO)NC(=O)[C@H](CO)NC(=O)[C@H](Cc1ccc(O)cc1)NC(=O)[C@H](CCCCN)NC(=O)[C@H](CCCNC(=N)N)NC(=O)[C@H](CO)NC(=O)[C@H](CCCNC(=N)N)NC(=O)[C@H](Cc1ccc(O)cc1)NC(=O)[C@@H](N)CS)C(C)C)C(=O)N[C@@H](CCCCN)C(=O)N[C@@H](CCCNC(=N)N)C(=O)N[C@@H](CS)C(=O)O [FGF-P, CYRSRKYSSWYVALKRC] (H-CYRSRKYSSWYVALKRC-OH; N-terminus and C-terminus assumed)
numbers of proliferating crypts in the bowel ([1]; 10.5 Gy sub-TBI, about 3.5 days post-IR, FGF-P 2 mg/kg im, repeated daily for 2 days): increased
crypt survival ([1]; 10.5 Gy sub-TBI, FGF-P 2 mg/kg im): approximately doubles crypt survival
proliferating crypts, BrdU staining method ([1]; 12 Gy, P<0.05): A similar result was obtained using the BrdU staining method
number of proliferating crypts ([1]; 12 Gy, duodenum, jejunum, ileum, P<0.05): higher number of proliferating crypts in duodenum, jejunum and ileum
crypt numbers in the ileum ([1]; Balb/c, 3.5 days after 12 Gy, FGF-P given after irradiation): Higher numbers of crypts
villi length ([1]; C57BL/6, 16 Gy sub-TBI, P<0.05): better preserved villi length in the duodenum and jejunum
crypt numbers ([1]; C57BL/6, doses as high as 16 Gy sub-TBI): improved crypt numbers in all sections of C57BL/6 small bowel
number of BM progenitors (CD24, CD34) (BM progenitors): increased the number of BM progenitors following radiation
Na transport from mucosa to serosa [2]: reversed
